From EP4703361A1, “PYRIDAZINONE TRPC4/5 INHIBITOR AND USE THEREOF” (Shanghai Institute of Materia Medica, Chinese Academy of …, priority 2023, dated 2024)
Each block holds one compound with its values, some of them ahead of it.

Legend:
[1] = Drug tissue distribution after oral administration to mice; conditions: for Drug concentration Brain / Drug concentration Colon / Drug concentration Heart / Drug concentration Kidney / Drug concentration Liver / Drug concentration Lung / Drug concentration Muscle / Drug concentration Plasma / Drug concentration Spleen: mice, 10 mg/kg oral
Description: 250 mg of CMC-Na was weighted accurately, dissolved in 50 mL of mili-Q water, and sonicated for 1 h to prepare a 0.5% (m/v) CMC-Na solution for later use. […] After vortexing to dissolve, 140 µL of Tween 80 was added and mixed by vortex. Then 6.72 mL of CMC-Na solution was added and sonicated for 30 min to obtain 7 mL of a 1.0 mg/mL solution for use.
Mice were able to eat and drink freely and randomly divided into groups, with 3 mice in each group, and each mouse was gavaged with a dosage volume of 10 mL/kg. Blood was collected from the orbital venous plexus 1 and 4 hours after administration. Approximately 500 µL of mouse blood was placed in an EDTA-K2 anticoagulant tube. At the same time points, the brain, heart, lung, liver, kidney, spleen, colon, and muscle tissues of the mice were collected. […] Mouse brain, heart, lung, liver, kidney, spleen, colon, and muscle tissues were ground into tissue homogenate using a grinder with physiological saline equal to 5 times the weight of the tissue. The homogenate was centrifuged at 3,000 rpm for 10 min, and the supernatant was stored at -80°C for later use.
198 µL of plasma sample was placed in a centrifuge tube, 2 µl of internal standard solution was added, then 400 µL of acetonitrile was added, mixed by vortex for 1 min, and centrifuged at 13,000 rpm for 6 min. All the supernatant was taken, evaporated at room temperature for two days, re-dissolved in 200 µL of acetonitrile solvent, filtered with a 0.22 µm filter membrane and then injected for testing. 198 µL of the tissue homogenate supernatant sample was placed in a centrifuge tube, 2 µl of internal standard solution was added, then 400 µL of acetonitrile was added, mixed by vortex for 1 min, and centrifuged at 13,000 rpm for 6 min. All the supernatant was taken, evaporated at room temperature for two days, re-dissolved in 200 µL of acetonitrile solvent, filtered with a 0.22 µm filter membrane and then injected for testing.
Chromatographic column: Ultimate XB-C18 3 µM 2.1*100 mm; flow rate: 0.3 mL/min; column temperature: 30 °C; injection volume: 5 µL; mobile phase: A (pure water, containing 0.1% by volume formic acid), B (acetonitrile). The mass spectrometry ion source was an electrospray ionization (ESI) ionization source with a source temperature of 300°C.

hTRPC5 = molecular target: T1, hTRPC5 (Homo sapiens, UniProt Q9UL62); experiment: TRPC5 inhibitory activity assay (FLIPR calcium flux, Fluo-4, agonist Englerin A); format: cell-based; conditions: HEK-293 cells expressing hTRPC5; agonist Englerin A 0.3 nM
T1 construct: expressed in transfected cells; host or cells: HEK-293
T1 sequence (Q9UL62 1-973): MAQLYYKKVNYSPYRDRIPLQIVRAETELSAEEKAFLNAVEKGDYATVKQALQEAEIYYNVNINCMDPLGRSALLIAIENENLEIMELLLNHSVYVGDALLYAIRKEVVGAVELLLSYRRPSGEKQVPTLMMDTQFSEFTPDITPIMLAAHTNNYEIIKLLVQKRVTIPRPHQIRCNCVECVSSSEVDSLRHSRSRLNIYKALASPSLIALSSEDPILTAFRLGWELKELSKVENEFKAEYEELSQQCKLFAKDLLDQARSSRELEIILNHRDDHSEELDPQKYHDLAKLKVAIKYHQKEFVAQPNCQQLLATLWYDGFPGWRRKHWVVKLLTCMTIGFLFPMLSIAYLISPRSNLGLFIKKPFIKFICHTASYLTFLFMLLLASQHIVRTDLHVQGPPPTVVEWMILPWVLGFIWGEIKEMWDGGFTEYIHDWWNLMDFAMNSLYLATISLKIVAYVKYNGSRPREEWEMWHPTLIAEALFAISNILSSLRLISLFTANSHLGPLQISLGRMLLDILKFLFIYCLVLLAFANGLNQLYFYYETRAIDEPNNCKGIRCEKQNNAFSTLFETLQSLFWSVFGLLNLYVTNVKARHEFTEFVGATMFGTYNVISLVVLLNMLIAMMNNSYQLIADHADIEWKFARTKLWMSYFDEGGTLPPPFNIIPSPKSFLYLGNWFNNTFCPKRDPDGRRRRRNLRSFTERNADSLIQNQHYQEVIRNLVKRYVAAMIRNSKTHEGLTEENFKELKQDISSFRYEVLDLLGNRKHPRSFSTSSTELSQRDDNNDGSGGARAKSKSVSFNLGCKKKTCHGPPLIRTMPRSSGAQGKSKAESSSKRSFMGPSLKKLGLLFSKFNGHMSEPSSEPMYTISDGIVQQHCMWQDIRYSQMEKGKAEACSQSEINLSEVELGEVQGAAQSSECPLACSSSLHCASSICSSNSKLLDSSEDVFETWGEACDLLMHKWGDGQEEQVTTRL
Description: HEK-293 cells expressing hTRPC4 or hTRPC5 were seeded into polylysine (PDL)-coated, black-bottomed, transparent 96-well plates at 2 × 10^4 cells per well. After 8 h of culture, the culture medium was discarded and 60 µL of 4 µM Fluo-4/AM dye was added. The plates were incubated at 37°C for 60 min and then rinsed five times with calcium flux assay buffer. […] After recording for 60 seconds, solvent control, test compound and positive inhibitor were added, and the signal was collected for another 300 seconds. Then, the agonist Englerin A (EA) (MedChemExpress, Shanghai, China, final concentration of 0.3 nM) was added, and the fluorescence signal was collected for another 600 seconds. The fluorescence signal in the trajectory diagram was expressed as F/F0, wherein F was the fluorescence signal at different time points and F0 was the basic fluorescence signal, that is, the average of the fluorescence signals at the first 10 time points. The dose-effect curve is first established with F/F0 = 1 as the baseline. The area under the curve of the fluorescence intensity change after the addition of EA was calculated. The IC50 value was calculated using the log[Inhibitor] vs. response - Variable slope, combining the area under the curve and the log value of the compound concentration.

[2] = Liver microsome stability test (mouse); conditions: for MF %: mouse liver microsomes, metabolic bioavailability; for half-life at 1 µM: mouse, liver microsomes, pH 7.4
Description: (§1) 0.1M pH 7.4 Tris buffer was prepared and then this buffer was used to prepare a 100 mM MgCl2 solution and a 10 mM coenzyme factor NADPH solution. The test compound was first prepared as a stock solution in DMSO and then diluted to a working concentration with 0.1% (w/v) BSA-PBS solution as needed.
(§2) During the assay, the liver microsome in TRIS buffer (final concentration of 0.33 mg/mL microsome protein), MgCl2 solution (final concentration of 5 mM), test compound solution (final concentration of 1 µM), and NADPH solution (final concentration of 1 mM) were incubated at 37°C. The reaction was terminated by adding methanol at 0, 7, 17, 30, and 60 minutes. The residual concentration of the test compound was determined using LC/MS/MS.
(§3) Calculation of in vivo clearance: Cl = (Clint × Houston × LW)/(1000); [formula]
(§4) Calculation of hepatic clearance: Clhep = (HBF × fu × Cl)/(HBF + (fu×Cl)); [formula]
(§5) Calculation of Metabolic utilization rate: %MF = 100−(Clhep × 100)/(HBF). [formula]
(§6) ke: Slope of the linear regression line (absolute value of slope) when plotting semi-logarithmic graph. The semi-logarithmic plot was made with the semi-logarithm of the remaining percentage of substrate versus reaction time. P: Microsome protein concentration (mg/mL); Houston: Houston factor (45 mg microsome protein/g liver); LW: Liver weight (g); HBF: Hepatic blood flow (mL/min); fu: Unbound fraction (typically fu=1).

[3] = Liver microsome stability test (human); conditions: for MF %: human liver microsomes, metabolic bioavailability; for half-life at 1 µM: human, liver microsomes, pH 7.4
Description: as §1, §2, §3, §4, §5, §6

in vitro [4] = conditions: human, microsomes, pH 7.4
Description: as §1, §2, §3, §4, §5, §6

in vitro [5] = conditions: mouse, microsomes, pH 7.4
Description: as §1, §2, §3, §4, §5, §6

[6] = tested on: DOCA-salt hypertensive nephropathy rats; experiment: DOCA-salt-induced hypertensive nephropathy rat model; format: in vivo, SD rats; conditions: oral treatment for 3 weeks, losartan 30 mg/kg once a day
Description: After one week of adaptive feeding, 40 healthy male SD rats (SPF grade, 6 weeks old, weighing 200 g) were randomly divided into cages and fed with normal water. Five rats were selected as the normal group. The other 35 rats were weighed and anesthetized with 6% (w/v) chloral hydrate (200 g/ml, Sinopharm Group Reagent Company) intraperitoneally. The dorsal surgical area was then trimmed and the rats were fixed in a prone position on a surgical board. After strict disinfection, a 2-cm incision was made on the left side of the spine, below the twelfth rib. The muscles were separated, the renal capsule was freed, and the left kidney was exposed. The renal artery and vein were ligated close to the renal hilum, and the left kidney was removed. After clearing congestion, the muscle layer and skin were sutured. After surgery (after waking up from anesthesia), the rats were given an intraperitoneal injection of penicillin sodium (80,000 units intraperitoneal injection, for 3 consecutive days, prepared with normal saline. If 400,000 units of powder were used with 2.5 mL of normal saline, and 0.5 mL was injected per mouse per day). Afterwards, the normal group was given a subcutaneous injection of vegetable oil (commonly corn oil) and fed with tap water; the DOCA-salt modeling group was given a subcutaneous injection of deoxycorticosterone acetate (DOCA, CAS: 56-47-3, Shanghai Aladdin Biochemical Technology) dissolved in vegetable oil once a week, 30 mg/kg each time, and 10 g/L NaCl and 2 g/L KCl were added to the drinking water. The model was established after 4 consecutive weeks of induction.
Four weeks after modeling, the DOCA-salt hypertensive nephropathy rats were divided into four groups according to UACR. The drug was dissolved in 2% (v/v) DMSO + 2% (w/v) Tween 80 + physiological saline system and administered by gavage. […] Normal group: 5 rats, raised normally. Each group had free access to food and water.
After the start of drug administration, rats were placed in metabolic cages to collect 24 hours urine per week. […] Three weeks after administration, serum was collected to check the concentrations of blood creatinine and urea nitrogen. Then, the rats were euthanized under anesthesia, and the renal tissues were obtained. The RNA levels of nephrin and podocin were detected by quantitative RT-PCR.
GraphPad Prism (Ver 6.0) was used for statistical analysis. All data were expressed as mean ± standard error (mean ± SEM). One-way ANOVA was used to analyze the data. Dunnett's multiple test was used to analyze the significance of the differences between the groups. When P < 0.05, the differences between the groups were statistically significant.

[7] = E21 high dose (10 mg/kg morning and evening), Figure 4
[8] = E21 medium dose (5 mg/kg morning and evening), Figure 3

Structure (SMILES): COC(c1ccc(F)cc1Cl)c1cnc2n1CCN(c1cn[nH]c(=O)c1Cl)C2 (racemic) [Example E21, 4-chloro-5-(3-((2-chloro-4-fluorophenyl)(methoxy)methyl)-5,6-dihydroimidazo[1,2-a]pyrazin-7(8H)-yl)pyridazin-3(2H)-one]
drug exposure and distribution in plasma, liver, and kidney ([1]; 1 and 4 hours after oral administration to mice): good | Drug concentration Brain ([1]; 1 h): 52 ng/g | Drug concentration Colon ([1]; 1 h): 824 ng/g | Drug concentration Heart ([1]; 1 h): 191 ng/g | Drug concentration Kidney ([1]; 1 h): 719 ng/g | Drug concentration Liver ([1]; 1 h): 565 ng/g | Drug concentration Lung ([1]; 1 h): 219 ng/g | Drug concentration Muscle ([1]; 1 h): 153 ng/g | Drug concentration Plasma ([1]; 1 h): 1147 ng/mL | Drug concentration Spleen ([1]; 1 h): 531 ng/g | Drug concentration Brain ([1]; 4 h): 28 ng/g | Drug concentration Colon ([1]; 4 h): 133 ng/g | Drug concentration Heart ([1]; 4 h): 26 ng/g | Drug concentration Kidney ([1]; 4 h): 97 ng/g | Drug concentration Liver ([1]; 4 h): 205 ng/g | Drug concentration Lung ([1]; 4 h): 39 ng/g | Drug concentration Muscle ([1]; 4 h): 52 ng/g | Drug concentration Plasma ([1]; 4 h): 250 ng/mL | Drug concentration Spleen ([1]; 4 h): 60 ng/g

Structure (SMILES): [N-]=[N+]=NC(c1ccc(F)cc1C(F)(F)F)c1cnc2n1CCN(c1cn[nH]c(=O)c1Cl)C2 (stereo not shown) [Example E9, 5-(3-(azido(4-fluoro-2-(trifluoromethyl)phenyl)methyl)-5,6-dihydroimidazo[1,2-a]pyrazin-7(8H)-yl)-4-chloropyridazin-3(2H)-one]
IC50 (hTRPC5): 24.6 nM

Structure (SMILES): COC(c1cc(F)ccc1Cl)c1cnc2n1CCN(c1cn[nH]c(=O)c1Cl)C2 (stereo not shown) [Example E22, 4-chloro-5-(3-((2-chloro-5-fluorophenyl)(methoxy)methyl)-5,6-dihydroimidazo[1,2-a]pyrazin-7(8H)-yl)pyridazin-3(2H)-one]
IC50 (hTRPC5): 60.1 nM

Structure (SMILES): [2H]C([2H])([2H])OC(c1ccc(F)cc1C)c1cnc2n1CCN(c1cn[nH]c(=O)c1Cl)C2 (stereo not shown) [Example E24, 4-chloro-5-(3-((4-fluoro-2-methylphenyl)(methoxy-d3)methyl)-5,6-dihydroimidazo[1,2-a]pyrazin-7(8H)-yl)pyridazin-3(2H)-one]
MF % [2]: 55.9% | half-life at 1 µM [2]: 0.997 h | MF % [3]: 63.8% | half-life at 1 µM [3]: 3.15 h

Structure (SMILES): C=C(c1cc(F)ccc1Cl)c1cnc2n1CCN(c1cn[nH]c(=O)c1Cl)C2 [Example E27, 4-chloro-5-(3-(1-(2-chloro-5-fluorophenyl)vinyl)-5,6-dihydroimidazo[1,2-a]pyrazin-7(8H)-yl)pyridazin-3(2H)-one]
IC50 (hTRPC5): 5.28 nM

Structure (SMILES): [N-]=[N+]=NC(c1cc(F)ccc1Cl)c1cnc2n1CCN(c1cn[nH]c(=O)c1Cl)C2 (stereo not shown) [Example E30, 5-(3-(azido(2-chloro-5-fluorophenyl)methyl)-5,6-dihydroimidazo[1,2-a]pyrazin-7(8H)-yl)-4-chloropyridazin-3(2H)-one]
IC50 (hTRPC5): 37.1 nM

Structure (SMILES): O=c1[nH]ncc(N2CCn3c(Cc4ccc(F)cc4C(F)(F)F)cnc3C2)c1Cl [Example L002]
half-life at 1 µM (in vitro [4]): 1.1 h | IC50 (hTRPC5): 10.4 nM | half-life at 1 µM (in vitro [5]): 0.645 h

Structure (SMILES): CCCCc1nc(Cl)c(CO)n1Cc1ccc(-c2ccccc2-c2nn[nH]n2)cc1 [losartan]
levels of nephrin (mRNA, kidney) [6, 7]: effectively increase | levels of podocin (mRNA, kidney) [6, 7]: effectively increase | serum creatinine (Scr) [6, 8]: effectively reduce | urea nitrogen (BUN) [6, 8]: no effect

Next, values leading:

IC50 (hTRPC5): 18.3 nM
Structure (SMILES): CC(c1ccc(F)cc1Cl)c1cnc2n1CCN(c1cn[nH]c(=O)c1Cl)C2 (stereo not shown) [Example E28, 4-chloro-5-(3-(1-(2-chloro-4-fluorophenyl)ethyl)-5,6-dihydroimidazo[1,2-a]pyrazin-7(8H)-yl)pyridazin-3(2H)-one]

MF % [2]: 54.4% | half-life at 1 µM [2]: 0.94 h | MF % [3]: 39.6% | half-life at 1 µM [3]: 1.17 h
Structure (SMILES): CC(c1cc(F)ccc1Cl)c1cnc2n1CCN(c1cn[nH]c(=O)c1Cl)C2 (stereo not shown) [Example E29, 4-chloro-5-(3-(1-(2-chloro-5-fluorophenyl)ethyl)-5,6-dihydroimidazo[1,2-a]pyrazin-7(8H)-yl)pyridazin-3(2H)-one]

IC50 (hTRPC5): 146 nM
Structure (SMILES): O=C(c1ccc(F)cc1C(F)(F)F)c1nnc2n1CCN(c1cn[nH]c(=O)c1Cl)C2 [Example E41, 4-chloro-5-(3-(4-fluoro-2-(trifluoromethyl)benzoyl)-5,6-dihydro-[1,2,4]triazolo[4,3-a]pyrazin-7(8H)-yl)pyridazin-3(2H)-one]
